In patent US11339136B2 (Novartis AG, priority 2016, dated 2022):

Molecular target: T1, hNLRP3 (Homo sapiens, UniProt Q96P20)
T1 construct: THP-1 cells were purchased from the American Type Culture Collection; host or cells: THP-1 cells, PMA-differentiated
Assay: IL-1β production in PMA-differentiated THP-1 cells stimulated with gramicidin
Type: cell-based
Conditions: gramicidin 5 μM, IL-1β in supernatant, Table 2
Method: Bioassay: IL-1β Production in PMA-Differentiated THP-1 Cells Stimulated with Gramicidin. Procedure 1:
Cell culture—THP-1 cells were purchased from the American Type Culture Collection and sub-cultured according to instructions from the supplier. Prior to experiments, cells were cultured in RPMI 1640 containing 10% heat inactivated FBS, penicillin (100 units/ml) and streptomycin (100 μg/ml), and maintained in log phase prior to experimental setup. Prior to the experiment THP-1 were treated with PMA (Phorbol 12-myristate 13-acetate) (10 μg/ml) for 24 hours. The day of the experiment the media was removed and attaching cells were treated with trypsin for 2 minutes, cells were then collected, washed with PBS (phosphate buffer saline), spin down, resuspended in 2% heat inactivated FBS with RPMI at a concentration of 1×10^6 cells/ml, and 100 ul was plated in a 96 well plate. Cells were incubated with compounds for 1 hours and then stimulated with Gramicidin (5 μM) (Enzo) for 2 hours. Cell free supernatant was collected and the production of IL-1β was evaluated by ELISA. Compounds were dissolved in dimethyl sulfoxide (DMSO) and added to the culture medium to achieve desired concentration (e.g. 100, 30, 10, 3, 1, 0.3 or 0.1 μM). A vehicle only control was run concurrently with each experiment. Final DMSO concentration was 1%.
THP-1 cells were purchased from the American Type Culture Collection and sub-cultured according to instructions from the supplier. Prior to experiments, cells were cultured in complete RPMI 1640 (containing 10% heat inactivated FBS, penicillin (100 units/ml) and streptomycin (100 μg/ml)), and maintained in log phase prior to experimental setup. Prior to the experiment THP-1 were treated with PMA (Phorbol 12-myristate 13-acetate) (20 ng/ml) for 16-18 hours. On the day of the experiment the media was removed and adherent cells were detached with trypsin for 5 minutes. Cells were then harvested, washed with complete RPMI 1640, spun down, resuspended in RPMI 1640 (containing 2% heat inactivated FBS, penicillin (100 units/ml) and streptomycin (100 μg/ml). The cells were plated in a 384-well plate at a density of 50,000 cells/well (final assay volume 50 μl). Compounds were dissolved in dimethyl sulfoxide (DMSO) and added to the culture medium to achieve desired concentration (e.g. 100, 33, 11, 3.7, 1.2, 0.41, 0.14, 0.046, 0.015, 0.0051, 0.0017 μM). Cells were incubated with compounds for 1 hour and then stimulated with gramicidin (5 μM) (Enzo) for 2 hours. Cell free supernatant was collected and the production of IL-1β was evaluated by HTRF (cisbio). A vehicle only control was run concurrently with each experiment. Final DMSO concentration was 0.38%.

T1 sequence (Q96P20 whole entry): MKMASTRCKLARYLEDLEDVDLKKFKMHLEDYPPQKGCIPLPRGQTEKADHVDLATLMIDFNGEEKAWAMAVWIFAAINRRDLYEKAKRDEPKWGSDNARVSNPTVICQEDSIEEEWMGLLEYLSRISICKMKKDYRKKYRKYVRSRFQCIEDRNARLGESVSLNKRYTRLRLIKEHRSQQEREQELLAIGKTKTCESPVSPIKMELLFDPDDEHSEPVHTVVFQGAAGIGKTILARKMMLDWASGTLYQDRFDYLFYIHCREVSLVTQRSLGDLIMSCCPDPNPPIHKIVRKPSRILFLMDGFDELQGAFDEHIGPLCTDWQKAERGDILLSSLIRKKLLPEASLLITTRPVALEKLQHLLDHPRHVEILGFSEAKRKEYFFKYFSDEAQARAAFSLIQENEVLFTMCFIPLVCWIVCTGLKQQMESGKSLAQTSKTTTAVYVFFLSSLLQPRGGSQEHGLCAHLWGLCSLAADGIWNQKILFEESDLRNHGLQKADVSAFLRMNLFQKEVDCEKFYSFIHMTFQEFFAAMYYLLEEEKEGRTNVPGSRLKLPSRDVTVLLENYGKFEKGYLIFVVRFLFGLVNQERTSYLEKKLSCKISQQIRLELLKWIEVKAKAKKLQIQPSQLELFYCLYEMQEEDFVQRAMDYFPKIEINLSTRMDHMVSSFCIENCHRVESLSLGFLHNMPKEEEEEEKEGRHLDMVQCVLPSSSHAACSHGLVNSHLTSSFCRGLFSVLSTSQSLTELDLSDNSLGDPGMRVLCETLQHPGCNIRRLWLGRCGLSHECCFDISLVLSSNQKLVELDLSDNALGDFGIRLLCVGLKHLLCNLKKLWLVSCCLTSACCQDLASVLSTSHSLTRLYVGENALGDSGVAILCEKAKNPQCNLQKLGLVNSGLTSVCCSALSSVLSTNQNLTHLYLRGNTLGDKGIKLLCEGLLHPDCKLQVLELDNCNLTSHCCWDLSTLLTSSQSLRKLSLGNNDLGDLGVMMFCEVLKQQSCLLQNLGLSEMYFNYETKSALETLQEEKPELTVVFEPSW

Row | Compound | IC50 [nM]
1 | CC(C)c1cccc(C(C)C)c1NC(=O)NS(=O)(=O)c1ccc(C2(O)CC2)s1 [Compound 201, N-(2,6-diisopropylphenylcarbamoyl)-5-(1-hydroxycyclopropyl) thiophene-2-sulfonamide] | 1000 to 5000
2 | O=C(Nc1c2c(cc3c1CCC3)CCC2)NS(=O)(=O)c1ccc(C2(O)CC2)s1 [Compound 202, N-(1,2,3,5,6,7-hexahydros-indacen-4-ylcarbamoyl)-5-(1-hydroxycyclopropyl) thiophene-2-sulfonamide] | < 1000
3 | CC(C)c1cc(F)cc(C(C)C)c1NC(=O)NS(=O)(=O)c1cc(C2(O)CC2)cs1 [Compound 204, N-(4-fluoro-2,6-diisopropylphenyl-carbamoyl)-4-(1-hydroxycyclo-propyl)thiophene-2-sulfonamide] | < 1000
4 | CC(C)c1cc(F)cc(C(C)C)c1NC(=O)NS(=O)(=O)c1cc(C2(O)CC2)co1 [Compound 205, N-(4-fluoro-2,6-diisopropylphenyl-carbamoyl)-4-(1-hydroxycyclo-propyl)furan-2-sulfonamide] | < 1000
5 | N#Cc1c2c(c(NC(=O)NS(=O)(=O)c3cc(C4(O)CC4)co3)c3c1CCC3)CCC2 [Compound 206, N-(8-cyano-1,2,3,5,6,7-hexahydros-indacen-4-ylcarbamoyl)-4-(1-hydroxycyclopropyl) furan-2-sulfonamide] | < 1000
6 | O=C(Nc1c2c(c(F)c3c1CCC3)CCC2)NS(=O)(=O)c1cc(C2(O)CC2)co1 [Compound 207, N-(8-fluoro-1,2,3,5,6,7-hexahydros-indacen-4-ylcarbamoyl)-4-(1-hydroxycyclo-propyl)furan-2-sulfonamide] | < 1000
7 | CC(C)(O)c1cnc(S(=O)(=O)NC(=O)Nc2c3c(c(F)c4c2CCC4)CCC3)s1 [Compound 209, N-(8-fluoro-1,2,3,5,6,7-hexahydros-indacen-4-ylcarbamoyl)-5-(2-hydroxypropan-2-yl)thiazole-2-sulfonamide] | < 1000
8 | O=C(Nc1c2c(c(Cl)c3c1CCC3)CCC2)NS(=O)(=O)c1cc(C2(O)CC2)cs1 [Compound 210, N-(8-chloro-1,2,3,5,6,7-hexahydros-indacen-4-ylcarbamoyl)-4-(1-hydroxycyclo-propyl)thiophene-2-sulfonamide] | < 1000
9 | CC(C)c1cc(F)cc(C(C)C)c1NC(=O)NS(=O)(=O)c1cc(C(C)(C)O)cs1 [Compound 211, N-(4-fluoro-2,6-diisopropylphenyl-carbamoyl)-4-(2-hydroxypropan-2-yl)thiophene-2-sulfonamide] | < 1000
10 | CC(C)c1ccc(F)c(C(C)C)c1NC(=O)NS(=O)(=O)c1cc(C2(O)CC2)co1 [Compound 212] | < 1000
11 | CC(C)c1ccc(F)c(C(C)C)c1NC(=O)NS(=O)(=O)c1ncc(C(C)(C)O)s1 [Compound 213, N-(3-fluoro-2,6-diisopropylphenyl-carbamoyl)-5-(2-hydroxypropan-2-yl)thiazole-2-sulfonamide] | < 1000
12 | O=C(Nc1c2c(cc3c1CCC3)CCC2)NS(=O)(=O)c1cc(C2(O)CC2)cs1 [Compound 216] | < 1000
13 | CC(C)c1cc(C#N)cc(C(C)C)c1NC(=O)NS(=O)(=O)c1cc(C(C)(C)O)cs1 [Compound 217, N-(4-cyano-2,6-diisopropylphenyl-carbamoyl)-4-(2-hydroxypropan-2-yl)thiophene-2-sulfonamide] | < 1000
14 | CC(C)c1ccc(F)c(C(C)C)c1NC(=O)NS(=O)(=O)c1cc(C2(O)CC2)cs1 [Compound 218, N-(3-fluoro-2,6-diisopropylphenyl-carbamoyl)-4-(1-hydroxycyclo-propyl)thiophene-2-sulfonamide] | < 1000
15 | CC(C)c1cc(Cl)cc(C(C)C)c1NC(=O)NS(=O)(=O)c1ncc(C(C)(C)O)s1 [Compound 219, N-(4-chloro-2,6-diisopropylphenyl-carbamoyl)-5-(2-hydroxypropan-2-yl)thiazole-2-sulfonamide] | < 1000
16 | CC(C)(O)c1cnc(S(=O)(=O)NC(=O)Nc2c3c(c(C#N)c4c2CCC4)CCC3)s1 [Compound 220, N-(8-cyano-1,2,3,5,6,7-hexahydros-indacen-4-ylcarbamoyl)-5-(2-hydroxypropan-2-yl)thiazole-2-sulfonamide] | 1000 to 5000

Row | Compound | IC50 [nM]
17 | CC(C)(O)c1cnc(S(=O)(=O)NC(=O)Nc2c3c(c(Cl)c4c2CCC4)CCC3)s1 [Compound 221, N-(8-chloro-1,2,3,5,6,7-hexahydros-indacen-4-ylcarbamoyl)-5-(2-hydroxypropan-2-yl)thiazole-2-sulfonamide] | < 1000
18 | N#Cc1c2c(c(NC(=O)NS(=O)(=O)c3cc(C4(O)CC4)cs3)c3c1CCC3)CCC2 [Compound 223, N-(8-cyano-1,2,3,5,6,7-hexahydros-indacen-4-ylcarbamoyl)-4-(1-hydroxycyclo-propyl)thiophene-2-sulfonamide] | < 1000
19 | CC(C)(O)c1csc(S(=O)(=O)NC(=O)Nc2c3c(c(C#N)c4c2CCC4)CCC3)c1 [Compound 224, N-(8-cyano-1,2,3,5,6,7-hexahydros-indacen-4-ylcarbamoyl)-4-(2-hydroxypropan-2-yl)thiophene-2-sulfonamide] | < 1000
20 | CC(C)c1cc(C#N)cc(C(C)C)c1NC(=O)NS(=O)(=O)c1ncc(C(C)(C)O)s1 [Compound 226, N-(4-cyano-2,6-diisopropylphenyl-carbamoyl)-5-(2-hydroxypropan-2-yl)thiazole-2-sulfonamide] | < 1000
21 | CC(C)c1cccc(C(C)C)c1NC(=O)NS(=O)(=O)c1ncc(C(C)(C)O)s1 [Compound 227, N-(2,6-diisopropylphenyl-carbamoyl)-5-(2-hydroxypropan-2-yl)thiazole-2-sulfonamide] | < 1000
22 | CC(C)c1ccc(F)c(C(C)C)c1NC(=O)NS(=O)(=O)c1cc(C(C)(C)O)cs1 [Compound 228, N-(3-fluoro-2,6-diisopropylphenyl-carbamoyl)-4-(2-hydroxypropan-2-yl)thiophene-2-sulfonamide] | < 1000
23 | CC(C)c1cc(Cl)cc(C(C)C)c1NC(=O)NS(=O)(=O)c1cc(C2(O)CC2)cs1 [Compound 229, N-(4-chloro-2,6-diisopropylphenyl-carbamoyl)-4-(1-hydroxycyclo-propyl)thiophene-2-sulfonamide] | < 1000
24 | CC(C)c1cccc(C(C)C)c1NC(=O)NS(=O)(=O)c1cc(C2(O)CC2)cs1 [Compound 230, N-(2,6-diisopropylphenyl-carbamoyl)-4-(1-hydroxycyclo-propyl)thiophene-2-sulfonamide] | < 1000
25 | CC(C)(O)c1csc(S(=O)(=O)NC(=O)Nc2c3c(c(Cl)c4c2CCC4)CCC3)c1 [Compound 232, N-(8-chloro-1,2,3,5,6,7-hexahydros-indacen-4-ylcarbamoyl)-4-(2-hydroxypropan-2-yl)thiophene-2-sulfonamide] | < 1000
26 | CC(C)(O)c1cnc(S(=O)(=O)NC(=O)Nc2c3c(cc4c2CCC4)CCC3)s1 [Compound 233, N-(1,2,3,5,6,7-hexahydros-indacen-4-ylcarbamoyl)-5-(2-hydroxypropan-2-yl)thiazole-2-sulfonamide] | < 1000
27 | CC(C)c1cc(C#N)cc(C(C)C)c1NC(=O)NS(=O)(=O)c1cc(C2(O)CC2)co1 [Compound 235, N-(4-cyano-2,6-diisopropylphenyl-carbamoyl)-4-(1-hydroxycyclo-propyl)furan-2-sulfonamide] | < 1000
28 | CC(C)c1cc(Cl)cc(C(C)C)c1NC(=O)NS(=O)(=O)c1cc(C2(O)CC2)co1 [Compound 236, N-(4-chloro-2,6-diisopropylphenyl-carbamoyl)-4-(1-hydroxycyclo-propyl)furan-2-sulfonamide] | < 1000
29 | O=C(Nc1c2c(cc3c1CCC3)CCC2)NS(=O)(=O)c1cc(C2(O)CC2)co1 [Compound 247, 1-(1,2,3,5,6,7-hexahydro-s-indacen-4-yl)-3-[4-(1-hydroxycyclopropyl)furan-2-sulfonyl]urea] | < 1000
30 | CC(C)c1ccc(F)c(C(C)C)c1NC(=O)NS(=O)(=O)c1cc(C(C)(C)O)c(Cl)s1 [Compound 250, 5-chloro-N-(3-fluoro-2,6-diisopropylphenylcarbamoyl)-4-(2-hydroxypropan-2-yl)thiophene-2-sulfonamide] | 1000 to 5000
31 | CC(C)c1cc(C#N)cc(C(C)C)c1NC(=O)NS(=O)(=O)c1cc(C(C)(C)O)c(Cl)s1 [Compound 251, 5-chloro-N-(4-cyano-2,6-diisopropylphenyl-carbamoyl)-4-(2-hydroxypropan-2-yl)thiophene-2-sulfonamide] | < 1000
